{"source": "paper PMC6450558", "about": "(Angewandte Chemie (International ed. in English), 2019)", "biological_target": "T1, human ST6Gal-I (Homo sapiens, UniProt P15907)", "T1 sequence (P15907 1-406)": "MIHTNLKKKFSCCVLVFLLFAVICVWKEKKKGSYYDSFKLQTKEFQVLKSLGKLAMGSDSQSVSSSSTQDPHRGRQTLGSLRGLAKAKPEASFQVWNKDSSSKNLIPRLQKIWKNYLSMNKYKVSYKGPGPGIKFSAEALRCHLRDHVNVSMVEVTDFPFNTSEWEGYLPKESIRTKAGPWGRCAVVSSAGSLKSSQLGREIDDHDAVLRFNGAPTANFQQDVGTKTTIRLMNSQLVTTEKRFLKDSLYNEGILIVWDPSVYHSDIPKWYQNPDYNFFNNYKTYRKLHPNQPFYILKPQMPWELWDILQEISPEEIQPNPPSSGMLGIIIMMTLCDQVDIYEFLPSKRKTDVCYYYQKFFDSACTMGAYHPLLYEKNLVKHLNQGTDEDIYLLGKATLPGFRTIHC", "assay": "sialyltransferase kinetics, donor varied", "format": "biochemical", "conditions": "read-out: ST6Gal-I / KM(app); acceptor LacNAc-butyl (11), fixed concentration", "data": [{"substance": "CMP-Neu9NSydCl [compound 9]", "values": [{"measurement": "Km", "value": "86 ± 21", "unit": "µM"}]}]}
